In patent US8278100B2, “Lasonolide compounds as reagents for inducing premature chromosome condensation and methods for treating disorders” (The United States of America, as Represented by the …, priority 2008, dated 2012):
“Also recorded” adds a separate entry of the source.

Columns and labels:
CA46 cells = test: Cell cycle analysis; format: cell-based, human; conditions: 24 h treatment
Experimental: (§1) After treatment, cells were collected, washed twice with ice-cold PBS, and fixed overnight with 70% precooled (−20° C.) ethanol. Fixed cells were resuspended in PBS containing 0.02 mg/mL RNase A (Roche, USA) and incubated at 37° C. for 15 min. Next, the cells were stained with 0.01 mg/mL propidium iodide (Sigma) in the dark at room temperature for 10 min. The DNA content was analyzed by flow cytometry using a FACSCalibur (Becton Dickinson, Sunnyvale, Calif.) with Cellquest and Modfit LT3.0 software (Becton Dickinson) (FIGS. 1D & 2A).

MDA-MB-231 cells [1] = test: Cell cycle analysis; format: cell-based, human; conditions: 24 h treatment
Experimental: as §1

HCT 116 cells = test: Cell cycle analysis; format: cell-based; conditions: 24 h treatment
Experimental: as §1

HT 29 cells = test: Cell cycle analysis; format: cell-based; conditions: 24 h treatment
Experimental: as §1

MCF-7 cells [2] = test: Cell cycle analysis; format: cell-based; conditions: 24 h treatment
Experimental: as §1

CA 46 cells = test: BrdU incorporation; format: cell-based, human
Experimental: (§2) A number of cells (5×10^5) were pulse-labeled with 50 μmol/L BrdU (Calbiochem, La Jolla, Calif.) for 30 minutes. Cells were collected, fixed in 70% ethanol at 4° C., washed with PBS, resuspended in 3 mL 2 mol/L HCl/0.5% Triton X-100, and left at room temperature for 30 minutes. Cells were spun down after adding 6 mL 0.1 M sodium borate (pH 8.5). Pellets were washed with PBS/0.5% Tween-20 twice, then resuspended in 15 μL FITC-conjuncted anti-BrdU antibody (Becton Dickinson, Franklin Lakes, N.J.). After incubation with the anti-BrdU antibody at room temperature for 60 minutes, pellets were washed once with PBS, and resuspended in 500 μL of PI solution (50 μg/mL PI and 50 μg/mL RNase). Analyses were done with a FACScan flow cytometer (Becton Dickinson, San Jose, Calif.) (FIG. 2B).

MDA-MB-231 cells [3] = test: BrdU incorporation; format: cell-based, human
Experimental: as §2

MCF-7 cells [4] = test: BrdU incorporation; format: cell-based
Experimental: as §2

PP1 = molecular target: T1, PP1 (Oryctolagus cuniculus, UniProt P62139); test: In vitro phosphatase activity assay; format: biochemical; conditions: compared with Okadaic Acid
T1 construct: purchased Biolabs
T1 sequence (P62139 whole entry): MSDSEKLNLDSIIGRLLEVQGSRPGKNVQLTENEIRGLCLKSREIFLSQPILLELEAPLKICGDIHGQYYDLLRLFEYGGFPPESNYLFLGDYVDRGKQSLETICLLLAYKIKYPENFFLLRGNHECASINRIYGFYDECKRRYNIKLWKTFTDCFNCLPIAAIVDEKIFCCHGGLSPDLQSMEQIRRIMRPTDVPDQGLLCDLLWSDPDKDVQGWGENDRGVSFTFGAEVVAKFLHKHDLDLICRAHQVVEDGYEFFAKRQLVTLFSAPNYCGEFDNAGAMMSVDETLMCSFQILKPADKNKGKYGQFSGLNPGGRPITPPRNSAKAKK
Experimental: (§3) The inhibitory effect of active agents on PP2A or PP1 enzyme activity was determined by measuring the generation of free PO4 from the phosphopeptide RRA(pT)VA, using the molybdate-malachite green-phosphate complex assay. The phosphatase assay was performed in a PP2A-specific reaction buffer [50 mM imidazole (pH 7.2), 0.2 mM EGTA, 0.02% 2-mercaptoethanol, 0.1 mg/mL of bovine serum albumin] using 10 μ/M phosphopeptide substrate and 0.03 Units PP2A (Upstate), or in PP1-specific reaction buffer [50 mM HEPES, 2 mM Dithiothreitol, 0.025% Tween-20, 0.1 mM EGT 100 mM NaCl] together with 100 μM phosphopeptide substrate and 0.03 Units PP1 (Biolabs). Different concentrations of active agents were added in the reaction system. After a 20-min incubation at 30° C., molybdate dye was added, and the amount of free phosphate generated was determined from the optical density at 630 nm (VERSAmax, Molecular Device), using a standard curve for free phosphate. Phosphatase activity was defined as picomoles of free PO4 generated per minute per microgram of protein, and phosphatase activity without drug was defined as 100% (FIGS. 3C & 3D).

PP2A = molecular target: T2, PP2A (Homo sapiens, UniProt P67775); test: In vitro phosphatase activity assay; format: biochemical; conditions: compared with Okadaic Acid
T2 construct: purchased Upstate
T2 sequence (P67775 whole entry): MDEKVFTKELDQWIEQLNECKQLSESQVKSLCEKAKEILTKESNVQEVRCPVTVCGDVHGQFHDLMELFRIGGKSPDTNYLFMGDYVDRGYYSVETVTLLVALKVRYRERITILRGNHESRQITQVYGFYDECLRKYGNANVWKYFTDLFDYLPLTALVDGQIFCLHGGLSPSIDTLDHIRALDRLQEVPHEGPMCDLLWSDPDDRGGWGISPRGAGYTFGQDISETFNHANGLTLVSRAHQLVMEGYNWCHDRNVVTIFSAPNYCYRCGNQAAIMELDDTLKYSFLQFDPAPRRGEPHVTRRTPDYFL
T2 sequence (P30153 2-589 partner limits assumed): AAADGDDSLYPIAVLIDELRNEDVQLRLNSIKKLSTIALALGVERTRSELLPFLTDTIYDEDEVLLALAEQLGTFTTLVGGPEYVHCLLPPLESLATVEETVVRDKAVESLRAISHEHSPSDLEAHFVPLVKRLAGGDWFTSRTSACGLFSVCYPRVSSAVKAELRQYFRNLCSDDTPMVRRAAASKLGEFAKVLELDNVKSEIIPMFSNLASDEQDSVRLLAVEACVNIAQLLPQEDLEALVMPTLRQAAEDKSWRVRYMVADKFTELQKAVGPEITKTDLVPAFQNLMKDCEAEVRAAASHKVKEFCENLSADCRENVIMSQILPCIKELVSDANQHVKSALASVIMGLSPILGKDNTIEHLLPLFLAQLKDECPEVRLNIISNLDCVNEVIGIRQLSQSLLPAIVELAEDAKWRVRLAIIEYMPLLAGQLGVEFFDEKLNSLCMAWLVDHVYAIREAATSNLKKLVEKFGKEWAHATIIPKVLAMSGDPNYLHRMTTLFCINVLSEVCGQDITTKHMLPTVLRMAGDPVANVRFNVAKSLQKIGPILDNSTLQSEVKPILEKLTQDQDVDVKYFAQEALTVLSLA
Experimental: as §3

Acetylated-H3K9 = test: Western blot; format: cell-based
Experimental: (§4) Protein levels were measured by Western blotting with corresponding specific primary antibodies, including those against Cdc2 p34(Santa Cruz), cyclinB1 (Santa Cruz) (FIG. 4A), Anti-Acetylated-H3K9 (Upstate), phosphorylated-H3 Ser28 (Cell signaling). GAPDH was as the loading control.

cyclinB1 = test: Western blot; format: cell-based
Experimental: as §4

phosphorylated-H3 Ser28 = test: Western blot; format: cell-based
Experimental: as §4

[5] = system: phosphorylated-H3 Ser28 in CA46 cells; test: Immunofluorescence assay; format: cell-based, human
Experimental: After drug treatments, CA46 cells were cytospun on the slides. Slides were fixed for 20 min with 4% paraformaldehyde in PBS (pH 7.4), and washed twice with PBS. After incubation for 20 min with 70% ethanol and washing with PBS, the cells were incubated in blocking buffer [8% bovine serum albumin (BSA) in PBS] for 1 h before incubation for 2 h with primary antibodies against phosphorylated-H3 Ser28 (Cell signaling) (FIG. 5). Slides were incubated for additional 1 h with the Alex488-conjugated secondary antibody (Alexa Fluoro 488 donkey anti-goat IgG, Molecular Probes, Invitrogen, CA). After three washes in PBS, cells were stained with 0.5 μg/mL propidium iodide (PI) and 100 μg/mL RNase A (Sigma, Mo.) for 15 min in the dark. Finally, slides were washed with PBS for three times and mounted with Vectashield anti-fade mounting media (Vector Laboratories, Inc., Burlingame, Calif.). Images were taken using a Nikon Eclipse TE-300 confocal microscope.

MDA-MB-231 cells [6] = test: Cell adhesion assay; format: cell-based, human
Experimental: The effect of Lasonolide A on the extracellular matrix-induced cell adhesion was determined as follows. Fibronectin or collagen was diluted in sterile water and applied to 96-well plates overnight at 4° C. Nonspecific binding sites were blocked with 1% bovine serum albumin for 1 h at room temperature. Breast cancer MDA-MB-231 cells were serum starved for 45 min, detached with 2 mmol/L EDTA in PBS, plated in triplicate onto wells in serum-free medium with or without Lasonolide A, and allowed to adhere for 1 h at 37° C. Nonadherent cells were washed away and adherent cells were fixed with 4% paraformaldehyde and stained with 0.1% crystal violet in 2% methanol. Following extensive washing with tap water, dye was extracted with 10% acetic acid and quantified by measuring absorbance at 595 nm on a multiwell spectrophotometer (VersaMax, Molecular Devices). (FIGS. 6A, 6B, & 6D)

[7] = system: actin network in MDA-MB-231 cells; test: Actin staining with phalloidin; format: cell-based, human
Experimental: Cells were fixed with 4% paraformaldehyde and permeabilized with PBS containing 0.1% Triton X-100. After blocking with 1% bovine serum albumin for 30 min. Cells were incubated with Alexa Fluor 488-conjugated phalloidin (Molecular Probes) to stain actin stress fibers.

C=C(CCC(C)C)COC(=O)[C@H](O)C/C=C\C[C@@H]1O[C@@H]2/C=C/C/C=C/C(C)=C\[C@H]3O[C@@H](C/C=C/C=C/C(=O)O[C@H](C2)[C@@]1(C)CO)C[C@H](O)[C@H]3C [Lasonolide A]
cell cycle arrest (CA46 cells): induced cell cycle arrest at G2/M phase | cell cycle arrest (MDA-MB-231 cells [1]): induced cell cycle arrest at G2/M phase | cell cycle arrest (HCT 116 cells): G2/M phase arrest | cell cycle arrest (HT 29 cells): G2/M phase arrest | cell cycle arrest (MCF-7 cells [2]): G2/M phase arrest | DNA replication (BrdU incorporation) (CA 46 cells): decelerated DNA replication | DNA replication (BrdU incorporation) (MDA-MB-231 cells [3]): decelerated DNA replication | DNA replication (BrdU incorporation) (MCF-7 cells [4]): decelerated DNA replication | inhibitory effect on PP1 (PP1): weaker inhibitory effect | inhibitory effect on PP2A (PP2A): weaker inhibitory effect | acetylation of histone H3 (Acetylated-H3K9): decreased the acetylation of histone H3 Lysine 9; also recorded: decreased the acetylation of H3 (Arg9) | H3 acetylation induced by the HDAC inhibitor SAHA (Acetylated-H3K9; with SAHA): attenuated the enhancement of H3 acetylation | protein level of cyclinB1 (cyclinB1): decreased the protein level of cyclinB1 | phosphorylation of H3 (Ser28) (phosphorylated-H3 Ser28): increased the phosphorylation of H3 (Ser28) | phosphorylation of H3 (Ser28), immunofluorescence [5]: showed the phosphorylation of H3 (Ser28) | attachment of cells to collagen I (MDA-MB-231 cells [6]; collagen I): blocked; also recorded: reduced | attachment of cells to fibronectin (MDA-MB-231 cells [6]; fibronectin): blocked; also recorded: reduced | cell adhesion / detachment (MDA-MB-231 cells [6]; low dose, short-time treatment, nanomolar concentration): inhibited adhesion; also recorded: detached cells into suspension | actin network / cytoskeleton [7]: reorganized the cytoskeleton system; also recorded: reorganized the actin network
